#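 1) Cells in 96-well plates. 2) Compound, 48 h, 5 concentrations. 3) Linear interpolation between surrounding doses. 4) Unreached endpoint = highest concentration. GI50 = concentration required for 50% inhibition of growth.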 The source made the active and inactive calls. Cut-off read from the data, not from the text of the source: active = GI50 up to about 1.1 µM and inactive = higher.
# Columns and labels:
# Test in all cases: NCI tumour cell line growth inhibition, 48 h
# MOLT-4 = system: MOLT-4
# MDA-MB-435 = system: MDA-MB-435
# BT-549 = system: BT-549
# MCF7 = system: MCF7
# Hs-578T = system: Hs-578T
# OVCAR-4 = system: OVCAR-4
# MDA-MB-231 = system: MDA-MB-231
# UO-31 = system: UO-31
# LOX IMVI = system: LOX IMVI
# HCC 2998 = system: HCC 2998
# RXF 393 = system: RXF 393
# T47D = system: T47D
# NCI-H226 = system: NCI-H226
# MDA-N = system: MDA-N
# SK-OV-3 = system: SK-OV-3
# COLO 205 = system: COLO 205
# M14 = system: M14
# HL-60 = system: HL-60
# OVCAR-3 = system: OVCAR-3
# K562 = system: K562
Structure (SMILES),GI50 (MOLT-4),GI50 (MDA-MB-435),GI50 (BT-549),GI50 (MCF7),GI50 (Hs-578T),GI50 (OVCAR-4),GI50 (MDA-MB-231),GI50 (UO-31),GI50 (LOX IMVI),GI50 (HCC 2998),GI50 (RXF 393),GI50 (T47D),GI50 (NCI-H226),GI50 (MDA-N),GI50 (SK-OV-3),GI50 (COLO 205),GI50 (M14),GI50 (HL-60),GI50 (OVCAR-3),GI50 (K562)
O=C1C(Cl)=C(Sc2nnc3c4ccccc4c4ccccc4c3n2)C(=O)c2ccccc21,13.9 µM (inactive),1.85 µM (inactive),17.8 µM (inactive),12.6 µM (inactive),34.3 µM (inactive),14.7 µM (inactive),3.51 µM (inactive),14.1 µM (inactive),4.57 µM (inactive),32.4 µM (inactive),17.1 µM (inactive),6.24 µM (inactive),19.3 µM (inactive),1.92 µM (inactive),21.6 µM (inactive),19.3 µM (inactive),15.2 µM (inactive),2.74 µM (inactive),14 µM (inactive),21.1 µM (inactive)
CCN1C/C(=C\c2cc(OC)c(OC)c(OC)c2)C2=NN(c3ccccc3)C(c3cc(OC)c(OC)c(OC)c3)C2C1 (stereo not given),5.05 µM (inactive),1.52 µM (inactive),6.75 µM (inactive),6 µM (inactive),0.34 µM (active),1.91 µM (inactive),0.525 µM (active),2.08 µM (inactive),2.08 µM (inactive),1.07 µM (active),0.75 µM (active),3.53 µM (inactive),4.68 µM (inactive),2.41 µM (inactive),1.74 µM (inactive),2.36 µM (inactive),1.7 µM (inactive),3.03 µM (inactive),3.63 µM (inactive),1.65 µM (inactive)
COc1cccc2c(Nc3ccc(S(=O)(=O)Nc4ncccn4)cc3)c3ccc([N+](=O)[O-])cc3nc12,14.3 µM (inactive),45.6 µM (inactive),59.7 µM (inactive),47.1 µM (inactive),> 100 µM (inactive),> 100 µM (inactive),38.7 µM (inactive),5.66 µM (inactive),30.6 µM (inactive),67 µM (inactive),60.8 µM (inactive),8.22 µM (inactive),38.7 µM (inactive),54.5 µM (inactive),54.6 µM (inactive),60.7 µM (inactive),45.1 µM (inactive),10.4 µM (inactive),> 100 µM (inactive),23 µM (inactive)
O=C(CC(Cc1ccccc1)c1ccc(Oc2ccccc2)cc1)Nc1cccc(Cl)c1 (stereo not given),3.69 µM (inactive),4.32 µM (inactive),7.67 µM (inactive),3.42 µM (inactive),7.85 µM (inactive),6.03 µM (inactive),10.8 µM (inactive),4.24 µM (inactive),3.73 µM (inactive),3.27 µM (inactive),5.41 µM (inactive),2.92 µM (inactive),7.48 µM (inactive),4.47 µM (inactive),5.46 µM (inactive),6 µM (inactive),4.88 µM (inactive),3.02 µM (inactive),3.86 µM (inactive),3.34 µM (inactive)
CC(C)C(=O)/C=C/c1c(Cl)cccc1Cl,4.63 µM (inactive),3.08 µM (inactive),2.64 µM (inactive),3.76 µM (inactive),2.35 µM (inactive),3.4 µM (inactive),4.28 µM (inactive),4.3 µM (inactive),2.47 µM (inactive),15.6 µM (inactive),5.43 µM (inactive),2.95 µM (inactive),2.33 µM (inactive),3.05 µM (inactive),3.28 µM (inactive),10.4 µM (inactive),2.61 µM (inactive),5.36 µM (inactive),2.41 µM (inactive),9.35 µM (inactive)
CCOC(=O)NC1=C(N2CC2)C(=O)C(NC(=O)OCC)=C(N2CC2)C1=O [DIAZIQUONE],1.38 µM (inactive),3.58 µM (inactive),11.4 µM (inactive),1.98 µM (inactive),13.2 µM (inactive),4.9 µM (inactive),8.13 µM (inactive),5.56 µM (inactive),2.31 µM (inactive),6.85 µM (inactive),4.68 µM (inactive),6.21 µM (inactive),4.23 µM (inactive),3.4 µM (inactive),4.52 µM (inactive),7.69 µM (inactive),2.62 µM (inactive),0.357 µM (active),4.75 µM (inactive),5.43 µM (inactive)

# Source: ChEMBL document CHEMBL1201862, “PubChem BioAssay data set” (2004)
